Source: ChEMBL document CHEMBL1154724, “Synthesis and antimicrobial activity evaluation of new 1,2,4-triazoles and 1,3,4-thiadiazoles bearing imidazo[2,1-b]thiazole moiety” (2010)
In brackets after ≈: the same amount, converted by molar mass. Activity calls are given as the source filed them. No cut-off for these calls is given here.

Experiments:
Assay type in all cases: functional
[1] = test system: Trichophyton erinacei; assay: Antifungal activity against Trichophyton mentagrophytes var. erinacei NCPF 375 after 7 days by microbroth dilution method; details: NCPF 375, 168 h, read-out: MIC100
[2] = test system: Pseudomonas aeruginosa; assay: Antibacterial activity against Pseudomonas aeruginosa ATCC 27853 after 16 to 20 hrs by microbroth dilution method
[3] = test system: Trichophyton tonsurans; assay: Antifungal activity against Trichophyton tonsurans NCPF 245 after 7 days by microbroth dilution method; details: NCPF 245, 168 h, read-out: MIC100
[4] = test system: Candida albicans; assay: Antifungal activity against Candida albicans ATCC 10231 after 48 hrs by microbroth dilution method; details: ATCC 10231, 48 h
[5] = test system: Candida parapsilosis; assay: Antifungal activity against Candida parapsilosis ATCC 22019 after 48 hrs by microbroth dilution method; details: Lodderomyces parapsilosis, ATCC 22019, 48 h
[6] = test system: Pichia kudriavzevii; assay: Antifungal activity against Candida krusei ATCC 6258 after 48 hrs by microbroth dilution method; details: ATCC 6258, 48 h
[7] = test system: Escherichia coli; assay: Antibacterial activity against Escherichia coli ATCC 25922 after 16 to 20 hrs by microbroth dilution method
[8] = test system: Nannizzia gypsea; assay: Antifungal activity against Microsporum gypseum NCPF 580 after 7 days by microbroth dilution method; details: NCPF 580, 168 h, read-out: MIC100
[9] = test system: Staphylococcus aureus; assay: Antibacterial activity against Staphylococcus aureus ATCC 29213 after 16 to 20 hrs by microbroth dilution method
[10] = test system: Mycobacterium tuberculosis; assay: Antimycobacterial activity against Mycobacterium tuberculosis H37Rv ATCC 27294 by microplate alamar blue assay
[11] = Mycobacterium tuberculosis, H37Rv ATCC 27294

SMILES | MIC [1] [µg/mL] | MIC [2] [µg/mL] | MIC [3] [µg/mL] | MIC [4] [µg/mL] | MIC [5] [µg/mL] | MIC [6] [µg/mL] | MIC [7] [µg/mL] | MIC [8] [µg/mL] | MIC [9] [µg/mL] | inhibition (INH) [10] [%] | MIC ([10]; Mycobacterium tuberculosis, H37Rv ATCC 27294, read-out: MIC100) [µg/mL] | MIC90 [10, 11] [µg/mL] | inhibition [10]
CCNc1nnc(Cc2csc3nc(-c4ccc(Br)cc4)cn23)s1 | 16 (≈ 38.1 µM) | 64 (≈ 152 µM) | 8 (≈ 19 µM) | 64 (≈ 152 µM) | 64 (≈ 152 µM) | 32 (≈ 76.1 µM) | 32 (≈ 76.1 µM) | 16 (≈ 38.1 µM) | 64 (≈ 152 µM) |  |  |  | 
CO[C@H]1/C=C/O[C@@]2(C)Oc3c(C)c(O)c4c(O)c(c(/C=N/N5CCN(C)CC5)c(O)c4c3C2=O)NC(=O)/C(C)=C\C=C\[C@H](C)[C@H](O)[C@@H](C)[C@@H](O)[C@@H](C)[C@H](OC(C)=O)[C@@H]1C [RIFAMPIN] |  |  |  |  |  |  |  |  |  | 97 | 0.25 (≈ 0.304 µM) |  | 
S=c1[nH]nc(Cc2csc3nc(-c4ccc(Br)cc4)cn23)n1-c1ccccc1 | 32 (≈ 68.3 µM) | > 64 | 16 (≈ 34.2 µM) | 32 (≈ 68.3 µM) | 32 (≈ 68.3 µM) | 32 (≈ 68.3 µM) | > 64 | 32 (≈ 68.3 µM) | 64 (≈ 137 µM) | 3 |  | > 6.25 | 
C[C@H]1COc2c(N3CCN(C)CC3)c(F)cc3c(=O)c(C(=O)O)cn1c23.C[C@H]1COc2c(N3CCN(C)CC3)c(F)cc3c(=O)c(C(=O)O)cn1c23.O [LEVOFLOXACIN] |  | 0.5 |  |  |  |  |  |  | 0.12 |  |  |  | 
CCC(C)n1ncn(-c2ccc(N3CCN(c4ccc(OCC5COC(Cn6cncn6)(c6ccc(Cl)cc6Cl)O5)cc4)CC3)cc2)c1=O (configuration not stated) [ITRACONAZOLE] |  |  |  | 0.12 (≈ 0.17 µM) | 0.06 (≈ 0.085 µM) | 0.12 (≈ 0.17 µM) |  |  |  |  |  |  | 
S=c1[nH]nc(Cc2csc3nc(-c4ccc(Br)cc4)cn23)n1-c1ccc(Br)cc1 | 64 (≈ 117 µM) | > 64 | 32 (≈ 58.5 µM) | 64 (≈ 117 µM) | 32 (≈ 58.5 µM) | 64 (≈ 117 µM) | > 64 | 64 (≈ 117 µM) | > 64 |  |  | > 6.25 | inactive
C=CCn1c(Cc2csc3nc(-c4ccc(Br)cc4)cn23)n[nH]c1=S | 64 (≈ 148 µM) | > 64 | 32 (≈ 74 µM) | 64 (≈ 148 µM) | 64 (≈ 148 µM) | 64 (≈ 148 µM) | > 64 | 64 (≈ 148 µM) | > 64 | 1 |  | > 6.25 | 
Cc1ccc(-n2c(Cc3csc4nc(-c5ccc(Br)cc5)cn34)n[nH]c2=S)cc1 | 16 (≈ 33.2 µM) | 64 (≈ 133 µM) | 16 (≈ 33.2 µM) | 16 (≈ 33.2 µM) | 16 (≈ 33.2 µM) | 16 (≈ 33.2 µM) | 64 (≈ 133 µM) | 16 (≈ 33.2 µM) | 64 (≈ 133 µM) | 4 |  | > 6.25 | 
Cn1c(Cc2csc3nc(-c4ccc(Br)cc4)cn23)n[nH]c1=S | 8 (≈ 19.7 µM) | > 64 | 16 (≈ 39.4 µM) | 32 (≈ 78.8 µM) | 32 (≈ 78.8 µM) | 32 (≈ 78.8 µM) | > 64 | 16 (≈ 39.4 µM) | > 64 |  |  | > 6.25 | inactive
CCCCn1c(Cc2csc3nc(-c4ccc(Br)cc4)cn23)n[nH]c1=S | 32 (≈ 71.4 µM) | 64 (≈ 143 µM) | 32 (≈ 71.4 µM) | 32 (≈ 71.4 µM) | 64 (≈ 143 µM) | 64 (≈ 143 µM) | 32 (≈ 71.4 µM) | 32 (≈ 71.4 µM) | 32 (≈ 71.4 µM) |  |  | > 6.25 | inactive
C[C@@H]1[C@H](O)[C@@H](C)/C=C/C=C/C=C/C=C/C=C/C=C/C=C/[C@H](O[C@@H]2O[C@H](C)[C@@H](O)[C@H](N)[C@@H]2O)C[C@@H]2O[C@](O)(C[C@@H](O)C[C@@H](O)[C@H](O)CC[C@@H](O)C[C@@H](O)CC(=O)O[C@H]1C)C[C@H](O)[C@H]2C(=O)O [AMPHOTERICIN B] | 0.5 (≈ 0.541 µM) |  | 0.25 (≈ 0.271 µM) |  |  |  |  | 0.5 (≈ 0.541 µM) |  |  |  |  | 
CNc1nnc(Cc2csc3nc(-c4ccc(Br)cc4)cn23)s1 | 16 (≈ 39.4 µM) | > 64 | 8 (≈ 19.7 µM) | 32 (≈ 78.8 µM) | 16 (≈ 39.4 µM) | 16 (≈ 39.4 µM) | > 64 | 16 (≈ 39.4 µM) | > 64 |  |  |  | 
S=c1[nH]nc(Cc2csc3nc(-c4ccc(Br)cc4)cn23)n1-c1ccc(Cl)cc1 | 32 (≈ 63.6 µM) | > 64 | 32 (≈ 63.6 µM) | 64 (≈ 127 µM) | > 64 | 64 (≈ 127 µM) | > 64 | 32 (≈ 63.6 µM) | > 64 |  |  | > 6.25 | inactive
CCCn1c(Cc2csc3nc(-c4ccc(Br)cc4)cn23)n[nH]c1=S | 16 (≈ 36.8 µM) | > 64 | 8 (≈ 18.4 µM) | 32 (≈ 73.7 µM) | 64 (≈ 147 µM) | 64 (≈ 147 µM) | 64 (≈ 147 µM) | 16 (≈ 36.8 µM) | 64 (≈ 147 µM) |  |  | > 6.25 | inactive
CCn1c(Cc2csc3nc(-c4ccc(Br)cc4)cn23)n[nH]c1=S | 16 (≈ 38.1 µM) | > 64 | 8 (≈ 19 µM) | 32 (≈ 76.1 µM) | 32 (≈ 76.1 µM) | 32 (≈ 76.1 µM) | 64 (≈ 152 µM) | 16 (≈ 38.1 µM) | 64 (≈ 152 µM) |  |  | > 6.25 | inactive
